In ChEMBL document CHEMBL1201862, “PubChem BioAssay data set” (2004):
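Tested at 5 concentrations; 48 h exposure; 96-well plates; endpoints linearly interpolated, else capped at highest concentration. GI50: concentration for 50% inhibition of growth.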 Activity calls are given as the source filed them. No stated cut-off is given here; in the data, active = GI50 up to about 1.1 µM and inactive = higher.

How the values were obtained:
Test in all cases: NCI-60 cell line screen, 48 h
ACHN = test system: ACHN
CAKI-1 = test system: CAKI-1
COLO 205 = test system: COLO 205
DU-145 = test system: DU-145
HCT-15 = test system: HCT-15
HL-60 = test system: HL-60
KM12 = test system: KM12
LOX IMVI = test system: LOX IMVI
MOLT-4 = test system: MOLT-4
NCI-H522 = test system: NCI-H522
OVCAR-3 = test system: OVCAR-3
RXF 393 = test system: RXF 393
SF-268 = test system: SF-268
SF-539 = test system: SF-539
SK-OV-3 = test system: SK-OV-3
SR = test system: SR
TK-10 = test system: TK-10
UACC-257 = test system: UACC-257
MDA-MB-435 = test system: MDA-MB-435
OVCAR-5 = test system: OVCAR-5

| SMILES | GI50 (ACHN) | GI50 (CAKI-1) | GI50 (COLO 205) | GI50 (DU-145) | GI50 (HCT-15) [µM] | GI50 (HL-60) | GI50 (KM12) | GI50 (LOX IMVI) | GI50 (MOLT-4) | GI50 (NCI-H522) | GI50 (OVCAR-3) | GI50 (RXF 393) | GI50 (SF-268) | GI50 (SF-539) | GI50 (SK-OV-3) | GI50 (SR) | GI50 (TK-10) | GI50 (UACC-257) | GI50 (MDA-MB-435) | GI50 (OVCAR-5) |
| --- | --- | --- | --- | --- | --- | --- | --- | --- | --- | --- | --- | --- | --- | --- | --- | --- | --- | --- | --- | --- |
| C(=C\C(SCc1ccccc1)SCc1ccccc1)/c1ccccc1 | > 10 µM (inactive) | > 10 µM (inactive) | > 10 µM (inactive) | > 10 µM (inactive) | > 10 | > 10 µM (inactive) | > 10 µM (inactive) | > 10 µM (inactive) | > 10 µM (inactive) | > 10 µM (inactive) | > 10 µM (inactive) | > 10 µM (inactive) | > 10 µM (inactive) | > 10 µM (inactive) | > 10 µM (inactive) | > 10 µM (inactive) | > 10 µM (inactive) | > 10 µM (inactive) | – | – |
| CCOC(=O)c1cc2cc(C)cc(C(=O)c3ccc([N+](=O)[O-])cc3)c2[nH]1 | > 100 µM (inactive) | > 100 µM (inactive) | > 100 µM (inactive) | > 100 µM (inactive) | > 100 | > 100 µM (inactive) | > 100 µM (inactive) | > 100 µM (inactive) | > 100 µM (inactive) | > 100 µM (inactive) | > 100 µM (inactive) | 37.7 µM (inactive) | > 100 µM (inactive) | > 100 µM (inactive) | > 100 µM (inactive) | – | > 100 µM (inactive) | > 100 µM (inactive) | > 100 µM (inactive) | > 100 µM (inactive) |
| N#CC1=C(N)OC2=C(CCCc3ccc([N+](=O)[O-])cc32)C1c1ccc(Cl)cc1 (stereo unspecified) | 4.59 µM (inactive) | 4.11 µM (inactive) | 5.35 µM (inactive) | 8.51 µM (inactive) | 3.12 | 1.89 µM (inactive) | 5.58 µM (inactive) | 4.6 µM (inactive) | 3.21 µM (inactive) | 6.41 µM (inactive) | 6.34 µM (inactive) | 4.68 µM (inactive) | 8.43 µM (inactive) | 8.97 µM (inactive) | 13.7 µM (inactive) | – | 10.6 µM (inactive) | 6.08 µM (inactive) | 5.92 µM (inactive) | 16.6 µM (inactive) |
| O=C1Nc2ccccc2C(=O)/C1=C/NC(=S)NC1CCCCC1 | > 100 µM (inactive) | > 100 µM (inactive) | > 100 µM (inactive) | > 100 µM (inactive) | > 100 | > 100 µM (inactive) | > 100 µM (inactive) | > 100 µM (inactive) | > 100 µM (inactive) | > 100 µM (inactive) | > 100 µM (inactive) | > 100 µM (inactive) | > 100 µM (inactive) | > 100 µM (inactive) | > 100 µM (inactive) | – | > 100 µM (inactive) | > 100 µM (inactive) | > 100 µM (inactive) | > 100 µM (inactive) |
| COc1cc(OC)c2c(=O)c3c([N+](=O)[O-])cccc3n(C)c2c1 | > 100 µM (inactive) | > 100 µM (inactive) | > 100 µM (inactive) | – | > 100 | > 100 µM (inactive) | > 100 µM (inactive) | > 100 µM (inactive) | > 100 µM (inactive) | > 100 µM (inactive) | > 100 µM (inactive) | > 100 µM (inactive) | > 100 µM (inactive) | > 100 µM (inactive) | > 100 µM (inactive) | > 100 µM (inactive) | > 100 µM (inactive) | > 100 µM (inactive) | – | > 100 µM (inactive) |
| C/C(O[Si](C(C)C)(C(C)C)C(C)C)=C(\C)C(=O)N(C)c1ccccc1Cl | > 100 µM (inactive) | > 100 µM (inactive) | > 100 µM (inactive) | > 100 µM (inactive) | > 100 | – | > 100 µM (inactive) | > 100 µM (inactive) | > 100 µM (inactive) | 73.8 µM (inactive) | > 100 µM (inactive) | > 100 µM (inactive) | > 100 µM (inactive) | > 100 µM (inactive) | – | – | > 100 µM (inactive) | > 100 µM (inactive) | > 100 µM (inactive) | > 100 µM (inactive) |
| CNCC(SC)c1ccc(O)c(O)c1 (stereo unspecified) | 17.7 µM (inactive) | 20.5 µM (inactive) | 17.1 µM (inactive) | 17.9 µM (inactive) | 30.8 | 12.9 µM (inactive) | > 100 µM (inactive) | 24.7 µM (inactive) | 17.2 µM (inactive) | 13.7 µM (inactive) | 14.1 µM (inactive) | 33.6 µM (inactive) | 38.1 µM (inactive) | – | > 100 µM (inactive) | – | 19.1 µM (inactive) | 14.1 µM (inactive) | 32.1 µM (inactive) | > 100 µM (inactive) |
| CCOC(=O)C1(N)CCc2[nH][nH]c(=O)c2C1 (stereo unspecified) | > 100 µM (inactive) | > 100 µM (inactive) | > 100 µM (inactive) | – | > 100 | > 100 µM (inactive) | > 100 µM (inactive) | > 100 µM (inactive) | > 100 µM (inactive) | > 100 µM (inactive) | > 100 µM (inactive) | – | – | > 100 µM (inactive) | > 100 µM (inactive) | > 100 µM (inactive) | > 100 µM (inactive) | > 100 µM (inactive) | > 100 µM (inactive) | > 100 µM (inactive) |
| N#Cc1nc(C#N)n(C(=O)c2ccccc2)c1NC(=O)c1ccccc1 | > 100 µM (inactive) | > 100 µM (inactive) | > 100 µM (inactive) | > 100 µM (inactive) | > 100 | > 100 µM (inactive) | > 100 µM (inactive) | > 100 µM (inactive) | > 100 µM (inactive) | > 100 µM (inactive) | > 100 µM (inactive) | > 100 µM (inactive) | > 100 µM (inactive) | > 100 µM (inactive) | > 100 µM (inactive) | – | > 100 µM (inactive) | > 100 µM (inactive) | > 100 µM (inactive) | > 100 µM (inactive) |
| O=P(O)(O)c1ccccc1Oc1ccccc1 | > 100 µM (inactive) | > 100 µM (inactive) | > 100 µM (inactive) | > 100 µM (inactive) | > 100 | > 100 µM (inactive) | > 100 µM (inactive) | > 100 µM (inactive) | > 100 µM (inactive) | > 100 µM (inactive) | > 100 µM (inactive) | > 100 µM (inactive) | > 100 µM (inactive) | > 100 µM (inactive) | > 100 µM (inactive) | – | > 100 µM (inactive) | > 100 µM (inactive) | > 100 µM (inactive) | > 100 µM (inactive) |
| COC(=O)C1=C(C)NC(=S)NC1c1ccc(N(CCCl)CCCl)cc1Cl (stereo unspecified) | 11 µM (inactive) | 2 µM (inactive) | 25.3 µM (inactive) | 12.4 µM (inactive) | 9.91 | 39.4 µM (inactive) | 19.6 µM (inactive) | 24.8 µM (inactive) | 4.55 µM (inactive) | 31.8 µM (inactive) | 22.6 µM (inactive) | > 34.9 µM (inactive) | 23.9 µM (inactive) | > 72.6 µM (inactive) | > 100 µM (inactive) | – | 32.4 µM (inactive) | 2.44 µM (inactive) | 12.5 µM (inactive) | 56.5 µM (inactive) |
| CCCNC(=O)N1CC(CN2CCN(c3ccccc3)CC2)O/C1=N/C(=O)Nc1ccccc1 (stereo unspecified) | > 100 µM (inactive) | > 100 µM (inactive) | 33.3 µM (inactive) | 57.9 µM (inactive) | – | 3.83 µM (inactive) | > 100 µM (inactive) | 67.8 µM (inactive) | > 100 µM (inactive) | 40.7 µM (inactive) | – | 43.3 µM (inactive) | > 100 µM (inactive) | – | > 100 µM (inactive) | – | 82.4 µM (inactive) | 46.8 µM (inactive) | 84.5 µM (inactive) | > 100 µM (inactive) |
| CNC(=O)CN(CC(=O)O)C(=O)NC | > 100 µM (inactive) | > 100 µM (inactive) | > 100 µM (inactive) | – | > 100 | > 100 µM (inactive) | > 100 µM (inactive) | > 100 µM (inactive) | > 100 µM (inactive) | > 100 µM (inactive) | > 100 µM (inactive) | > 100 µM (inactive) | > 100 µM (inactive) | > 100 µM (inactive) | > 100 µM (inactive) | > 100 µM (inactive) | > 100 µM (inactive) | > 100 µM (inactive) | – | > 100 µM (inactive) |
| CC(=O)OC1COC(N2C(=O)/C(=N\Nc3ccc([N+](=O)[O-])cc3)c3cc(Br)c([N+](=O)[O-])cc32)C(OC(C)=O)C1OC(C)=O (stereo unspecified) | 21.6 µM (inactive) | 50.4 µM (inactive) | > 100 µM (inactive) | – | 33 | 65.6 µM (inactive) | 27.9 µM (inactive) | 51.1 µM (inactive) | > 100 µM (inactive) | 24.1 µM (inactive) | > 100 µM (inactive) | 15.5 µM (inactive) | 26.4 µM (inactive) | 68.2 µM (inactive) | 40.6 µM (inactive) | 98.9 µM (inactive) | > 100 µM (inactive) | > 100 µM (inactive) | – | > 100 µM (inactive) |
| CC(C)(Cl)C(Br)CCC(C)(Br)C(Br)CBr (stereo unspecified) | 17.4 µM (inactive) | – | 16.9 µM (inactive) | 19.6 µM (inactive) | 17.1 | 17 µM (inactive) | 17.8 µM (inactive) | – | 19.6 µM (inactive) | 13 µM (inactive) | 15.9 µM (inactive) | 22.1 µM (inactive) | 16.9 µM (inactive) | 15.6 µM (inactive) | 29.1 µM (inactive) | – | 27.5 µM (inactive) | 18.7 µM (inactive) | 17.8 µM (inactive) | 15.7 µM (inactive) |
